# Experimental data published in patent publication US20250255850A1, “PHARMACEUTICAL COMPOSITIONS FOR TREATING NEUROLOGICAL CONDITIONS” (YISSUM RESEARCH DEVELOPMENT COMPANY OF THE HEBREW …, priority 2021, published 2025).
# Columns and labels:
# C57BL/6 wild-type mice [1] = experiment: Three-chambered sociability test, SNAP-treated wild-type mice; assay type: in vivo, mouse
# Description: (§1) Behavioral testing started after 2 hours of treatment.
# Three-chambered sociability test (see, FIG. 4B): Sociability and preference for social novelty and social recognition were tested in a three-chambered apparatus. The subjected mouse was first placed in the central, neutral chamber and allowed to explore for 10 minutes with all the doors closed. Next, doors were opened and the mouse was allowed to freely explore the other two empty chambers (1 and 2) for an additional 10 minutes. Lack of side preference was confirmed during this habituation.
# Two cylindrical wire cages were placed, one in chamber 1 and the other in chamber 2. For the sociability test, the test animal was introduced to the middle chamber and allowed to adjust for 5 minutes. Then, an unfamiliar mouse was introduced into a wire cage in one of the side-chambers, and the other side-chamber remained empty. The time spent by the test mouse exploring the wire cage with an unfamiliar mouse inside was recorded for 5 minutes.
# Next, to examine social memory, novel mice is introduced to the empty cage and the tested mice is examined whether they are interested in the novel mice compared to the familiar.
# S-nitroso-N-acetylpenicillamines (SNAP), is an NO donor that increases the NO availability, subsequently leading to nitrosative stress and aberrant SNO signaling. […] To examine the potential effect of SNAP administration on mice behaviors, a novel object recognition test (NOR) and sociability test were performed (See, FIGS. 4A-B), and the obtained data are presented in FIGS. 2A-B, respectively.
# A three-chamber sociability test was conducted as in Example 2 (see also FIG. 4B), to evaluate the interest of the mice to engage in social interaction with a stranger mouse. Generally, the mice prefer to spend more time with another mouse (sociability), and the mice have the tendency to investigate a novel intruder more than a familiar one (social novelty). […]
# C57BL/6 wild-type mice [2] = experiment: Elevated plus maze test, SNAP-treated wild-type mice; assay type: in vivo, mouse
# Description: as §1
# Elevated plus maze test (see, FIG. 4C): The elevated plus-maze consisted of four arms (30×5 cm), two open, and the other two closed. The platform was made of white plexiglass. The apparatus was elevated 45 cm above the floor. The test, described in, was initiated by placing the mouse on the central platform of the maze, facing one of the open arms, and letting it move freely. Each session lasted 5 min. The time spent in the close and open arms was recorded.
# An elevated plus maze test (see, FIG. 4C) was performed to evaluate the anxiety-like behaviors among the mice, typically the anxiety quantified as the time spent in the closed arms.
# C57BL/6 wild-type mice [3] = experiment: Novel object recognition test (NOR), SNAP-treated wild-type mice; assay type: in vivo, mouse
# Description: as §1
# Novel object recognition (see, FIG. 4A): The novel object test for object recognition and memory takes place in a white open field arena (45×45 cm). The test involves a set of two unique novel objects, each about the size of a mouse, constructed from two different materials and non-uniform in shape. The test consisted of one 10-minute habituation session, a 5-minute familiarization session and a 5-minute recognition test, each video tracked (Noldus Ethovision). During the habituation, animals were allowed to freely explore an empty open field. At the end of the session, they were shifted from the open field to a place in a temporary clean holding cage for about 2 minutes. Two identical objects were placed on the median line at 10 cm from each wall and the animal was returned to the open field and allowed to explore the objects for 5 minutes before being returned to its home cage. Next day, one familiar object and one novel object were placed in the open field to the location where the identical objects were placed during the familiarization session and the mouse was allowed to explore them for a 5-minute recognition test. […] Familiarization and recognition sessions were scored for total time spent investigating each object, the number of object interactions and the latency of the first object interaction. […]
# C57BL/6 wild-type mice [4] = experiment: Marble burying test, SNAP-treated wild-type mice; assay type: in vivo, mouse; conditions: SNAP IP 20 mg/kg/day for 10 days; vs WT
# Description: as §1
# Marble Burying test (see, FIG. 4D): The marble-burying assay is a tool for assessing either anxiety-like and/or repetitive-like behaviors in mice. Subjects were tested in a regular clean cage (28 cm long×18 cm wide×12 cm high) with 3 cm of fresh bedding. The subject was first placed in the empty cage for a 5-min habituation. It was then temporary placed in an empty clean cage while 20 dark blue glass marbles (15 mm in diameter) were positioned over the bedding equidistant in a 4×5 arrangement to cover the whole cage surface. The subject was then returned in the test cage and allowed to explore and bury the marbles during a 15-min session that was videotaped. At the end of the session the subject was removed and the number of marbles buried (50% marble covered by bedding material) was recorded.
# A marble burying test (as shown in FIG. 4D) was utilized as an indication for repetitive behaviors and restricted interests.
# SHSY-5Y cells = experiment: Immunofluorescence of 3-nitrotyrosine and synaptophysin in SHANK3-silenced SHSY-5Y cells; assay type: cell-based, human
# Description: A cell culture model for ASD was developed by silencing SHANK3 with an siRNA (5-3 RNA)-CGAUGAUAAGCAGUUUGCAAAGCUU (SEQ ID NO: 3) in the neuronal cell line SHSY-5Y cells, followed by silencing with of nNOS using the following RNA (5-3) CCUUGUCCAACAUGCUCCUAGAGAU (SEQ ID NO: 4).
# SHSY-5Y Cells (with or without treatment) were fixed post treatment in 4% paraformaldehyde, incubated with the Primary rabbit MAP2+ primary mouse monoclonal 3-nitrotyrosine (FIGS. 9A-B) and with Primary rabbit monoclonal synaptophysin+primary mouse Map2 (FIGS. 9C-D). Thereafter, cells were incubated with anti-mouse secondary Alexa fluor488 (green)/594 (red), and anti-rabbit secondary Alexa fluor 488 (green)/594 (red), conjugated secondary antibodies. After washing, cells were mounted with DAPI (Blue). The images were acquired using a confocal microscope. Each group contained nine independent sets of experiments (initial cell seed number—about 10^6).
# To support the effect of nucleic acid silencing on a SHANK3 silenced background, the present inventors applied siRNA to nNOS on […] SHSY-5Y Cells.
# [5] = SNAP IP 20 mg/kg/day for 7 days, wild-type mice vs control group
# [6] = SNAP IP 20 mg/kg/day for 10 days, C57BL/6 WT mice
substance,measurement,setting,value
S-nitroso-N-acetylpenicillamines [SNAP],preference to engage in social interaction (sociability test),C57BL/6 wild-type mice [1]; [5],did not exhibit any preference to engage in social interaction
same,"preference for novel mouse (S2) vs familiar (S1) (second session, social novelty)",C57BL/6 wild-type mice [1]; [6],did not exhibit any significant preference to engage in social interaction with the mice
same,"time interacting with stranger mouse vs empty cage (first session, sociability)",C57BL/6 wild-type mice [1]; [6],spent more time interacting with the stranger mouse than with the empty cage
same,time in the closed arms (elevated plus maze),"C57BL/6 wild-type mice [2]; SNAP IP 20 mg/kg/day for 10 days, vs WT group",spent significantly more time in the closed arms compared to WT group
same,time spent in the open arms (elevated plus maze),"C57BL/6 wild-type mice [2]; SNAP i.p. 20 mg/kg daily for 10 days, vs WT",significantly decreased time in the open arms
same,solubility in DMSO,Solubility in DMSO,20 mg/mL
same,preference for the novel object (NOR test),C57BL/6 wild-type mice [3]; [5],failed to display a preference for the novel object
same,preference for the novel object (NOR test),C57BL/6 wild-type mice [3]; [6],failed to display a preference for the novel object
same,number of marbles buried,C57BL/6 wild-type mice [4],buried significantly less marbles
"siRNA to nNOS: RNA (5-3) CCUUGUCCAACAUGCUCCUAGAGAU (SEQ ID NO: 4) silencing nNOS (CCUUGUCCAACAUGCUCCUAGAGAU; listed as RNA, chemistry not given here)",synaptophysin protein expression (immunofluorescence),SHSY-5Y cells; nNOS knockdown in the SHANK3 si-RNA group (double knockdown),recovery in synaptophysin protein expression
same,nitrotyrosine production (immunofluorescence),SHSY-5Y cells; nNOS silencing in the SHANK3 si-RNA group (double knockdown),reduction in nitrotyrosine production
"SHANK3 si-RNA: siRNA CGAUGAUAAGCAGUUUGCAAAGCUU (SEQ ID NO: 3) silencing SHANK3 (CGAUGAUAAGCAGUUUGCAAAGCUU; listed as RNA, chemistry not given here)",synaptophysin expression (immunofluorescence),SHSY-5Y cells; SHSY-5Y cells treated with SHANK3 si-RNA alone,downregulated
